From the supplement of paper PMC4862054

Experiments:
Assay in all cases: normalised response (% of control), CellTox Green; higher = less cell death (100 = DMSO, 0 = benzethonium chloride kill control)
Settings in all cases: incubation time: 72 h
[1] = tested on: BT-474
How it was run: (§1)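 After 72 h with compound in 384-well plates, breast cancer cell lines seeded as 20 µl suspension were read for CellTox Green fluorescence at 485/520 nm. CellTiter-Glo luminescence was then read after 10 min at room temperature. Compound was present at 5 concentrations in 10-fold steps over a 10,000-fold range set per compound, and plates were normalised to 0.1 % DMSO (100) and a positive kill control (0). Values are normalised signals, each at a single concentration.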

[2] = tested on: BT-549
How it was run: as §1

[3] = tested on: CAL-120
How it was run: as §1

[4] = tested on: CAL-148
How it was run: as §1

[5] = tested on: CAL-51
How it was run: as §1

[6] = tested on: CAL-85-1
How it was run: as §1

[7] = tested on: DU-4475
How it was run: as §1

[8] = tested on: HCC1143
How it was run: as §1

[9] = tested on: HCC1599
How it was run: as §1

[10] = tested on: HCC1937
How it was run: as §1

[11] = tested on: HDQ-P1
How it was run: as §1

[12] = tested on: Hs578T
How it was run: as §1

[13] = tested on: MCF-10A
How it was run: as §1

[14] = tested on: MDA-MB-231
How it was run: as §1

[15] = tested on: MDA-MB-436
How it was run: as §1

[16] = tested on: MDA-MB-453
How it was run: as §1

[17] = tested on: MDA-MB-468
How it was run: as §1

[18] = tested on: MFM-223
How it was run: as §1

SMILES | normalised response [1] | normalised response [2] | normalised response [3] | normalised response [4] | normalised response [5] | normalised response [6] | normalised response [7] | normalised response [8] | normalised response [9] | normalised response [10] | normalised response [11] | normalised response [12] | normalised response [13] | normalised response [14] | normalised response [15] | normalised response [16] | normalised response [17] | normalised response [18]
Cc1cc(Nc2nc(N[C@@H](C)c3ncc(F)cn3)ncc2Cl)[nH]n1 [AZD1480] (100 nM) | 71.6% | 95.4% | 98.6% | 99% | 107% | 99.9% | 97.6% | 58.8% | 93.8% | 100% | 97.1% | 96.6% | 85.5% | 98.9% | 101% | 106% | 128% | 100%
Cc1cc(Nc2nc(N[C@@H](C)c3ncc(F)cn3)ncc2Cl)[nH]n1 [AZD1480] (1000 nM) | 95.3% | 88.9% | 87.1% | 85.8% | 69.4% | 109% | 98.2% | 97.3% | 99.3% | 69.3% | 69.3% | 71.7% | 98.9% | 76.7% | 105% | 105% | 84.2% | 41.5%
CO[C@@H]1[C@H](N(C)C(=O)c2ccccc2)C[C@H]2O[C@]1(C)n1c3ccccc3c3c4c(c5c6ccccc6n2c5c31)C(=O)NC4 [Midostaurin] (10000 nM) | 87.9% | 25.2% | 80.8% | 66.4% | -24.3% | 97.5% | 88.6% | 91.4% | 81.2% | 91.9% | 55.3% | 21.1% | 93.3% | 60.6% | 83.6% | 91.6% | 0.55% | 93.1%
COc1ccc(S(=O)(=O)Nc2cccnc2Nc2ccc(O)cc2)cc1 [ABT-751] (10000 nM) | 67.4% | 77.8% | 92% | 81.8% | 32.5% | 50.8% | 107% | 121% | 74.5% | 108% | 107% | 29.5% | 42.6% | 46.2% | 63.9% | 97% | 112% | 35.7%
CC(C)C[C@H](NC(=O)[C@@H](COC(C)(C)C)NC(=O)[C@H](Cc1ccc(O)cc1)NC(=O)[C@H](CO)NC(=O)[C@H](Cc1c[nH]c2ccccc12)NC(=O)[C@H](Cc1cnc[nH]1)NC(=O)[C@@H]1CCC(=O)N1)C(=O)N[C@@H](CCCNC(=N)N)C(=O)N1CCC[C@H]1C(=O)NNC(N)=O [Goserelin] (1000 nM) | 99.8% | 124% | 102% | 102% | 105% | 106% | 96.9% | 112% | 98.4% | 83.8% | 107% | 102% | – | – | 92.4% | 107% | 158% | 83.2%
CCNC(=O)CCC/C=C\C[C@@H]1[C@@H](/C=C/[C@@H](O)CCc2ccccc2)[C@H](O)C[C@@H]1O [Bimatoprost] (5500 nM) | 57% | 121% | 98.4% | 100% | 112% | 106% | 99.7% | 117% | 102% | 104% | 79.9% | 61.1% | 86.9% | 110% | 77% | 98% | – | 97.4%
COc1cc(Nc2c(C#N)cnc3cc(OCCCN4CCN(C)CC4)c(OC)cc23)c(Cl)cc1Cl [Bosutinib] (1000 nM) | 94.2% | 106% | 104% | 92.5% | 84.4% | 93.7% | 101% | 116% | 100% | 110% | 93.3% | 78% | 93.7% | 93.6% | 107% | 114% | 164% | –
CC(C)(C)NC(=O)[C@H]1CC[C@H]2[C@@H]3CC[C@H]4NC(=O)C=C[C@]4(C)[C@H]3CC[C@]12C [Finasteride] (10000 nM) | 100% | 98.9% | 106% | 103% | 100% | 91.2% | 102% | 81.5% | 97.7% | 77.4% | 102% | – | 94.1% | 113% | 101% | 85.4% | 174% | –
O=C(CCCCCCC(=O)Nc1ccccc1)NO [Vorinostat] (1000 nM) | 96.8% | 115% | 95.1% | 100% | 96.6% | 95.5% | 94.5% | 100% | 91.8% | 122% | – | 78.8% | 89.9% | 83.2% | 73.5% | 93.9% | 103% | 97.3%
CO[C@@]12[C@H](COC(N)=O)C3=C(C(=O)C(C)=C(N)C3=O)N1C[C@@H]1N[C@@H]12 [Mitomycin C] (10000 nM) | 101% | 99.5% | 98.4% | 42.2% | -36.9% | 102% | 94.7% | 36.6% | 99.1% | 108% | 71.8% | 77.6% | 85.4% | 101% | 90.2% | 104% | 5.66% | –
CC(=O)[C@]1(O)Cc2c(O)c3c(c(O)c2[C@@H](O[C@H]2C[C@H](N)[C@H](O)[C@H](C)O2)C1)C(=O)c1ccccc1C3=O [Idarubicin] (100 nM) | 72.2% | 98.7% | 98.8% | 36% | 70.2% | 86.2% | 95.2% | 102% | 101% | 110% | – | 103% | 112% | 114% | 40.4% | 108% | 49.4% | 99.2%
Cn1cc(C2=C(c3cn(C4CCN(Cc5ccccn5)CC4)c4ccccc34)C(=O)NC2=O)c2ccccc21 [Enzastaurin] (1000 nM) | 105% | 143% | 103% | 60% | 104% | 97.7% | 104% | 105% | 102% | – | 87.7% | 97.7% | 109% | 76.6% | 89.4% | 107% | 112% | 82%
Cn1cc(C2=C(c3cn(C4CCN(Cc5ccccn5)CC4)c4ccccc34)C(=O)NC2=O)c2ccccc21 [Enzastaurin] (10000 nM) | 95.5% | 94.8% | 79.2% | 105% | 95.7% | 65% | 111% | 111% | 120% | 121% | 101% | – | 94.4% | 113% | 94.4% | 108% | 138% | 100%
CC(C)C[C@H](NC(=O)[C@@H](COC(C)(C)C)NC(=O)[C@H](Cc1ccc(O)cc1)NC(=O)[C@H](CO)NC(=O)[C@H](Cc1c[nH]c2ccccc12)NC(=O)[C@H](Cc1cnc[nH]1)NC(=O)[C@@H]1CCC(=O)N1)C(=O)N[C@@H](CCCNC(=N)N)C(=O)N1CCC[C@H]1C(=O)NNC(N)=O [Goserelin] (10000 nM) | 84.2% | 107% | 98% | 104% | 104% | 114% | 98.9% | – | 95.5% | 88% | 62.5% | – | 75.6% | 94.9% | 90.3% | 95% | 181% | –
CC(O)(CS(=O)(=O)c1ccc(F)cc1)C(=O)Nc1ccc(C#N)c(C(F)(F)F)c1 (centres undefined) [Bicalutamide] (10000 nM) | 103% | 116% | 103% | 105% | 92.2% | 67.6% | 104% | 134% | 91.5% | 112% | 66.2% | 86% | 106% | 125% | 78.1% | 99% | – | 100%
CO[C@@]12[C@H](COC(N)=O)C3=C(C(=O)C(C)=C(N)C3=O)N1C[C@@H]1N[C@@H]12 [Mitomycin C] (1000 nM) | 94.9% | 123% | 100% | 97.8% | 35.3% | 97.6% | 94.7% | 104% | 98.1% | 111% | 106% | 90.8% | 90.1% | 97.1% | 78.8% | 100% | – | 101%
CC(O)(CS(=O)(=O)c1ccc(F)cc1)C(=O)Nc1ccc(C#N)c(C(F)(F)F)c1 (centres undefined) [Bicalutamide] (1000 nM) | 104% | 116% | 97.6% | 87.8% | 112% | 94.6% | 103% | 111% | 101% | 59.6% | 104% | – | 105% | 115% | 95.5% | 103% | 137% | 97.5%
COc1ccc(S(=O)(=O)Nc2cccnc2Nc2ccc(O)cc2)cc1 [ABT-751] (1000 nM) | 86.1% | 40.4% | 87.2% | – | 110% | 35.1% | 93.9% | 98.9% | 87.8% | -57.9% | 90.5% | 78.8% | 81.3% | 53.4% | 57.2% | 102% | -16.6% | 83.6%
CC1(C)CCC(c2ccc(Cl)cc2)=C(CN2CCN(c3ccc(C(=O)NS(=O)(=O)c4ccc(N[C@H](CCN5CCOCC5)CSc5ccccc5)c(S(=O)(=O)C(F)(F)F)c4)cc3)CC2)C1 [Navitoclax] (1000 nM) | 89.1% | 95.6% | 50.3% | 71.7% | 60.1% | 79.3% | 90.2% | 92.9% | 89.8% | 92.8% | 54.7% | 84.3% | – | -19.3% | 101% | 99.8% | 84.7% | 95.8%
C/C(=C\c1csc(C)n1)[C@@H]1C[C@@H]2O[C@]2(C)CCC[C@H](C)[C@H](O)[C@@H](C)C(=O)C(C)(C)[C@@H](O)CC(=O)N1 [Ixabepilone] (100 nM) | 100% | 65.6% | 105% | 102% | 35.9% | 95.9% | 103% | 102% | 102% | – | – | 95.5% | 87.7% | 102% | 106% | 107% | 83% | 98.8%
